Assay results: US11478458B2, “Inhibitors of short-chain dehydrogenase activity for promoting neurogenesis and inhibiting nerve cell death” (CASE WESTERN RESERVE UNIVERSITY, priority 2016, dated 2022)
Where two headings read alike, the source gives them in different places.

Experiments:
[1] = tested on: PGE2 levels in rat brain cortex; assay: PGE2 levels in rat brain cortex after IP injection; format: in vivo
Procedure: FIG. 7 illustrates a graph showing PGE2 levels in rat brain cortex following IP injection of (+) SW033291 at 2.5, 5.0, and 10.0 mg/kg. PGE2 levels are elevated in rat brain cortex 30, 120, and 180 minutes following a single IP injection of (+)-SW033291 at the noted doses.

[2] = tested on: prostaglandin E2 (PGE2) in brain; assay: PGE2 in 3 regions of the mouse brain after intraperitoneal injection; format: in vivo; settings: 2.5 mg/kg IP, 3 hours after injection; cerebrum, cerebellum, medulla/pons; 3 mice
Description: Brain regions sampled are #1, the cerebrum, #2, the cerebellum, and #3, medulla/pons. Basal PGE2 is highest in the cerebrum and medulla/pons, and lowest in the cerebellum.

15-PGDH = target: T1, 15-PGDH (Mus musculus, UniProt Q8VCC1); assay: 15-PGDH activity in mouse brain regions after IP injection; format: in vivo; settings: 2.5 mpk IP
T1 construct: from tissue; host or cells: mouse brain (cortex, cerebellum, pons and medulla)
T1 sequence (Q8VCC1 1-269): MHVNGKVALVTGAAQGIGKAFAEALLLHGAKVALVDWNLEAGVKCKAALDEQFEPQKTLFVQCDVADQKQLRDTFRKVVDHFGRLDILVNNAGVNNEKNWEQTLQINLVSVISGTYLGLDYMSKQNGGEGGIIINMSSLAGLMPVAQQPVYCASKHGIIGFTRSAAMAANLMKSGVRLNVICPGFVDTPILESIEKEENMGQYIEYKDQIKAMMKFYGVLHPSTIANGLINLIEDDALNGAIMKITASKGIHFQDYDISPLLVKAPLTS
Procedure: FIGS. 6(A-C) illustrate graphs showing 15-PGDH activity in the cortex (A), cerebellum (B), and pons and medulla (C) of mouse brain following IP injection of 15-PGDH inhibitor (+) SW033291 at 2.5 mpk. 15-PGDH activity was measured from the 3 regions of mouse brain using a 15-tritiated PGE2 substrate. A coupled enzymatic assay uses 15-PGDH and glutamate dehydrogenase to transfer tritium from PGE2 onto glutamate. Brain tissues were harvested for assay at the times shown following IP injection of 15-PGDH inhibitor (+)-SW033291 at 2.5 mpk.

[3] = tested on: mice subjected to blast injury (traumatic brain injury); assay: learning, memory and beam walking after traumatic brain injury (blast injury); format: in vivo; settings: blast-injured mice
Procedure: In this study, mice were on day 0 subjected to traumatic brain injury from exposure to an adjacent blast injury in an overpressure chamber. 24 hours later, on study day 1, mice treatment with (+) SW033291 at 10 mg/kg was initiated by daily intraperitoneal injection. A parallel cohort of control mice were initiated on injection with vehicle only. On study day 7, mice commenced 4 days of daily training to learn the location of a cup on a table with 20 holes equally spaced around the perimeter, in the standard Barnes maze task. […] Cohorts that are compared are sham-injured mice, mice subjected to blast injury and treated with vehicle, mice subjected to blast injury and treated with the neuroprotective agent P7C3-A20, and mice subjected to blast injury and treated with (+) SW033291. Quicker time in finding the cup on day 4 is reflective of learning.
On study day 11, mice were returned to the Barnes maze with the escape cup removed, and memory was assessed by measuring the time mice spent within 5 cm of the cup's prior location.
On study day 12-14, mice were further trained to traverse a ½ inch cylindrical rod to reach and enter a black box. On day 14, the mice performance was videotaped and counts were made of the number of times a mouse foot slipped from the beam. […] In this assay, the worst performance is recorded for mice exposed to blast-injury receiving vehicle injections.

[4] = pharmacokinetics in plasma and brain after intraperitoneal injection; format: in vivo; settings: mouse, 25 mg/kg intraperitoneal, female C57BL/7 mice, read-out: total drug exposure (area under the curve) in brain relative to plasma
[5] = cited from earlier work
EP2 receptors = target: T2, EP2 receptors (Homo sapiens, UniProt P43116); settings: in vitro; cited from earlier work
T2 construct: host or cells: neurons in vitro
T2 sequence (P43116 whole entry): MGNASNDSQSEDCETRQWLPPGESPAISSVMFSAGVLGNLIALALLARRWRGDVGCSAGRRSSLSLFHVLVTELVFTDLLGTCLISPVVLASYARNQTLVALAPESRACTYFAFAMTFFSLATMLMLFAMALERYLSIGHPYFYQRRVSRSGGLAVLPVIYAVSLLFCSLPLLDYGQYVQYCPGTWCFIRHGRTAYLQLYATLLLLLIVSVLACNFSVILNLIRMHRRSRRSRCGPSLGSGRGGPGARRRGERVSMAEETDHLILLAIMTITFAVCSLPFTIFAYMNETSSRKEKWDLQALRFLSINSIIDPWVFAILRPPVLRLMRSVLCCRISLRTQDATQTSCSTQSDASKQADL

[6] = chemical stability in aqueous solutions; format: physicochemical; settings: over broad pH range
[7] = stability on incubation with hepatocyte extracts; format: in vitro ADME
[8] = stability on incubation with hepatocyte cell lines; format: in vitro ADME
[9] = toxicity after IP injection into mice
[10] = tested on: PGE2 production by cell lines; assay: PGE2 production by cell lines; format: cell-based
recombinant 15-PGDH = target: T3, recombinant 15-PGDH (Homo sapiens, UniProt P15428); assay: inhibition of recombinant 15-PGDH; format: biochemical
T3 sequence (P15428 1-266): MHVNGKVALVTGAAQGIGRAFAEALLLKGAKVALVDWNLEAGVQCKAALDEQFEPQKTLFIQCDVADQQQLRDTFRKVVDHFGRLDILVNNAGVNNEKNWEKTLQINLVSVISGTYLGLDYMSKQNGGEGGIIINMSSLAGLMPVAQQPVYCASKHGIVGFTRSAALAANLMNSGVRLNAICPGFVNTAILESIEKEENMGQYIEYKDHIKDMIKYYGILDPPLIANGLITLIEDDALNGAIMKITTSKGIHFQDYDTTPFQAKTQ

[11] = stability on incubation with rat liver extracts; format: in vitro ADME
[12] = stability on incubation with human liver extracts; format: in vitro ADME
[13] = stability on incubation with mouse liver extracts; format: in vitro ADME

In the case of `CCCC[S+]([O-])c1sc2nc(-c3cccs3)cc(-c3ccccc3)c2c1N` (single isomer, unassigned; (+)) [(+) SW033291], the “PGE2 levels in rat brain cortex” value ([1]; 30, 120 and 180 minutes after single IP injection at 2.5, 5.0, 10.0 mg/kg) is reported as “elevated”, the “PGE2 levels in rat brain cortex” value ([1]; 120 minutes after dosing at 10 mpk IP) is reported as “double” and the “PGE2 levels in rat brain cortex” value ([1]; 180 minutes after dosing at 5 mpk IP) is reported as “double”. For the same molecule, the “brain PGE2 levels versus vehicle” value [2] was “roughly double”, the “15-PGDH enzyme activity in brain (cortex, cerebellum, pons and medulla)” value (15-PGDH) was “readily inhibited” and the “Barnes maze learning (time to locate the cup, training days 1-4)” value ([3]; daily IP treatment from 24 hours after injury, study days 7-10) was “appear similar to control mice that received only sham injury”. For the same molecule, the “Barnes maze memory (time within 5 cm of the cup's prior location)” value ([3]; study day 11) was “behaved similarly to control mice that received only sham injury” and the “foot slips from the beam” value ([3]; study day 14) was “intermediate performance”.

`CCCC[S+]([O-])c1sc2nc(-c3nccs3)cc(-c3cnc(C)n3C)c2c1N` (single isomer, unassigned; (+)) [(+) SW209415] showed a Kp [4] of 1.56.

In the case of `CCCCC[C@H](O)/C=C/[C@H]1[C@H](O)CC(=O)[C@@H]1C/C=C\CCCC(=O)O` [PGE2, prostaglandin E2], the half-life ([5]; following intravenous injection) is given as “less than 1 min” and the half-life ([5]; in the circulatory system) is given as “approximately 30 sec”.

For `CCCC1([C@H](O)C/C=C/[C@H]2[C@H](O)CC(=O)[C@@H]2CCCCCCC(=O)OC)CCC1` [butaprost], the “protection of neurons from amyloid β-peptide neurotoxicity” value (EP2 receptors) is given as “protected neurons”.

In the case of `CCCC[S+]([O-])c1sc2nc(-c3cccs3)cc(-c3ccccc3)c2c1N` (centres unmarked) [formula (IX)], the “chemical stability in aqueous solutions” value [6] is reported as “chemically stable”, the “chemical stability when incubated with hepatocyte extracts” value [7] is reported as “chemically stable” and the “chemical stability when incubated with hepatocyte cell lines” value [8] is reported as “chemically stable”. The “toxicity on repeated dosing” value ([9]; IP into mice at 0.3 μmole/per mouse twice daily for 21 days) was “no toxicity”, the “immediate toxicity over 24 hours” value ([9]; IP into mice at 0.6 μmole/per mouse) was “no immediate toxicity” and the “immediate toxicity over 24 hours” value ([9]; IP into mice at 1.2 μmole/per mouse) was “no immediate toxicity”. For the same molecule, the “PGE2 production by cell lines” value [10] was “increase PGE2 production”.

With `CCCC[S+]([O-])c1sc2nc(-c3nccs3)cc(-c3cnc(C)n3C)c2c1N` (centres unmarked) [formula (X)] the “chemical stability in aqueous solutions” value [6] was “chemically stable”, the “concentration at which recombinant 15-PGDH is inhibited” value (recombinant 15-PGDH) was 3 nM and the “chemical stability when incubated with rat liver extracts” value [11] was “chemically stable”. The “chemical stability when incubated with human liver extracts” value [12] was “chemically stable”, the “immediate toxicity over 24 hours” value ([9]; IP into mice at 50 mg/kg body weight) was “no immediate toxicity” and the “chemical stability when incubated with mouse liver extracts” value [13] was “chemically stable”. The “concentration at which PGE2 production by cell lines is increased” value [10] was 20 nM.
